# In ChEMBL document CHEMBL1201862, “PubChem BioAssay data set” (2004):
#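 Dose response: 5 concentrations. Exposure: 48 h. Format: 96-well plates. Endpoint: linear interpolation; highest concentration if not reached. GI50: concentration for 50% inhibition of growth.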 Activity calls are given as the source filed them. No stated cut-off is given here; in the data, active = GI50 up to about 1.1 µM and inactive = higher.
# Key:
# Experiment in all cases: NCI-60 cell line screen, 48 h
# LOX IMVI = system: LOX IMVI
# COLO 205 = system: COLO 205
# SK-MEL-5 = system: SK-MEL-5
# UO-31 = system: UO-31
# IGROV-1 = system: IGROV-1
# HL-60 = system: HL-60
# MDA-MB-231 = system: MDA-MB-231
# RPMI-8226 = system: RPMI-8226
# T47D = system: T47D
# SK-MEL-2 = system: SK-MEL-2
# NCI-H460 = system: NCI-H460
# SW-620 = system: SW-620
# HCT-15 = system: HCT-15
# HCC 2998 = system: HCC 2998
# MCF7 = system: MCF7
# TK-10 = system: TK-10
# NCI-H226 = system: NCI-H226
# CCRF-CEM = system: CCRF-CEM
# HOP-62 = system: HOP-62
# HT-29 = system: HT-29
# KM12 = system: KM12
# A498 = system: A498
# ACHN = system: ACHN
# PC-3 = system: PC-3
# CAKI-1 = system: CAKI-1
# SF-539 = system: SF-539
# U-251 = system: U-251
# SNB-75 = system: SNB-75
# RXF 393 = system: RXF 393
# SK-OV-3 = system: SK-OV-3
# SN12C = system: SN12C
# DU-145 = system: DU-145
# MOLT-4 = system: MOLT-4
# 786-0 = system: 786-0
# BT-549 = system: BT-549
# MDA-N = system: MDA-N
# SK-MEL-28 = system: SK-MEL-28
# OVCAR-5 = system: OVCAR-5
# SF-268 = system: SF-268
# K562 = system: K562
# SF-295 = system: SF-295
# HOP-92 = system: HOP-92
# Malme-3M = system: Malme-3M
# NCI-H23 = system: NCI-H23
# M14 = system: M14
# NCI-H522 = system: NCI-H522
# MDA-MB-435 = system: MDA-MB-435
# SR = system: SR
# UACC-257 = system: UACC-257
# Hs-578T = system: Hs-578T
# UACC-62 = system: UACC-62
# OVCAR-3 = system: OVCAR-3
# EKVX = system: EKVX
# OVCAR-4 = system: OVCAR-4
# SNB-19 = system: SNB-19
# A549 = system: A549
# NCI/ADR-RES = system: NCI/ADR-RES
# HCT-116 = system: HCT-116
# OVCAR-8 = system: OVCAR-8
smiles,measurement,setting,value
O=C1C(CN2CCCC2)CCCC1CN1CCCC1 (configuration not stated),GI50,LOX IMVI,2.52 µM (inactive)
same,GI50,COLO 205,1.53 µM (inactive)
same,GI50,SK-MEL-5,16.6 µM (inactive)
same,GI50,UO-31,791 nM (active)
same,GI50,IGROV-1,17.1 µM (inactive)
same,GI50,HL-60,326 nM (active)
same,GI50,MDA-MB-231,15.8 µM (inactive)
same,GI50,RPMI-8226,900 nM (active)
same,GI50,T47D,2.56 µM (inactive)
same,GI50,SK-MEL-2,18.5 µM (inactive)
same,GI50,NCI-H460,22.8 µM (inactive)
same,GI50,SW-620,129 nM (active)
same,GI50,HCT-15,2190 nM
same,GI50,HCC 2998,18.3 µM (inactive)
same,GI50,MCF7,658 nM (active)
same,GI50,TK-10,2.19 µM (inactive)
same,GI50,NCI-H226,22.1 µM (inactive)
same,GI50,CCRF-CEM,31.8 nM (active)
same,GI50,HOP-62,> 49.8 µM (inactive)
same,GI50,HT-29,14.7 µM (inactive)
same,GI50,KM12,19.7 µM (inactive)
same,GI50,A498,20.7 µM (inactive)
same,GI50,ACHN,1.82 µM (inactive)
same,GI50,PC-3,18.2 µM (inactive)
same,GI50,CAKI-1,1.64 µM (inactive)
same,GI50,SF-539,7.36 µM (inactive)
same,GI50,U-251,19.6 µM (inactive)
same,GI50,SNB-75,19.7 µM (inactive)
same,GI50,RXF 393,2.69 µM (inactive)
same,GI50,SK-OV-3,17.4 µM (inactive)
same,GI50,SN12C,17.1 µM (inactive)
same,GI50,DU-145,19.8 µM (inactive)
same,GI50,MOLT-4,258 nM (active)
same,GI50,786-0,1.07 µM (active)
same,GI50,BT-549,1.87 µM (inactive)
same,GI50,MDA-N,7.59 µM (inactive)
same,GI50,SK-MEL-28,3.85 µM (inactive)
same,GI50,OVCAR-5,5.98 µM (inactive)
same,GI50,SF-268,25.8 µM (inactive)
same,GI50,K562,206 nM (active)
same,GI50,SF-295,> 38.7 µM (inactive)
same,GI50,HOP-92,229 nM (active)
same,GI50,Malme-3M,611 nM (active)
same,GI50,NCI-H23,1.95 µM (inactive)
same,GI50,M14,1.74 µM (inactive)
same,GI50,NCI-H522,49.5 nM (active)
same,GI50,MDA-MB-435,2.76 µM (inactive)
same,GI50,SR,3.04 µM (inactive)
same,GI50,UACC-257,2.1 µM (inactive)
same,GI50,Hs-578T,28 µM (inactive)
same,GI50,UACC-62,16.9 µM (inactive)
same,GI50,OVCAR-3,5.01 µM (inactive)
same,GI50,EKVX,3.52 µM (inactive)
same,GI50,OVCAR-4,5.75 µM (inactive)
same,GI50,SNB-19,> 100 µM (inactive)
same,GI50,A549,19.8 µM (inactive)
same,GI50,NCI/ADR-RES,6.1 µM (inactive)
same,GI50,HCT-116,1.8 µM (inactive)
same,GI50,OVCAR-8,4.37 µM (inactive)
CC(O)c1cc2c(s1)C(=O)c1ccsc1C2=O (configuration not stated),GI50,LOX IMVI,0.0125 µM (active)
same,GI50,COLO 205,1.77 µM (inactive)
same,GI50,SK-MEL-5,< 0.0122 µM (active)
same,GI50,UO-31,212 nM (active)
same,GI50,IGROV-1,0.468 µM (active)
same,GI50,HL-60,14.4 nM (active)
same,GI50,MDA-MB-231,0.0964 µM (active)
same,GI50,RPMI-8226,123 nM (active)
same,GI50,T47D,0.316 µM (active)
same,GI50,SK-MEL-2,0.126 µM (active)
same,GI50,SW-620,138 nM (active)
same,GI50,HCT-15,40.9 nM
same,GI50,HCC 2998,0.223 µM (active)
same,GI50,MCF7,45.7 nM (active)
same,GI50,TK-10,0.461 µM (active)
same,GI50,NCI-H226,0.48 µM (active)
same,GI50,CCRF-CEM,259 nM (active)
same,GI50,HOP-62,0.142 µM (active)
same,GI50,HT-29,0.21 µM (active)
same,GI50,KM12,0.508 µM (active)
same,GI50,A498,1.53 µM (inactive)
same,GI50,ACHN,0.117 µM (active)
same,GI50,PC-3,0.0632 µM (active)
same,GI50,CAKI-1,0.695 µM (active)
same,GI50,SF-539,0.0509 µM (active)
same,GI50,U-251,0.0944 µM (active)
same,GI50,SNB-75,0.0649 µM (active)
same,GI50,RXF 393,0.213 µM (active)
same,GI50,SK-OV-3,2.7 µM (inactive)
same,GI50,SN12C,0.104 µM (active)
same,GI50,DU-145,0.0489 µM (active)
same,GI50,MOLT-4,213 nM (active)
same,GI50,786-0,0.665 µM (active)
same,GI50,BT-549,0.0815 µM (active)
same,GI50,MDA-N,0.0139 µM (active)
same,GI50,SK-MEL-28,0.0216 µM (active)
same,GI50,OVCAR-5,0.14 µM (active)
same,GI50,SF-268,0.162 µM (active)
same,GI50,K562,122 nM (active)
same,GI50,SF-295,0.0467 µM (active)
same,GI50,HOP-92,265 nM (active)
same,GI50,Malme-3M,19.7 nM (active)
same,GI50,NCI-H23,0.0169 µM (active)
same,GI50,M14,0.0593 µM (active)
same,GI50,NCI-H522,117 nM (active)
same,GI50,MDA-MB-435,< 0.01 µM (active)
same,GI50,SR,0.103 µM (active)
same,GI50,UACC-257,0.0167 µM (active)
same,GI50,Hs-578T,0.107 µM (active)
same,GI50,UACC-62,0.0262 µM (active)
same,GI50,OVCAR-3,0.0522 µM (active)
same,GI50,EKVX,0.229 µM (active)
same,GI50,OVCAR-4,0.212 µM (active)
same,GI50,SNB-19,0.241 µM (active)
same,GI50,A549,0.189 µM (active)
same,GI50,NCI/ADR-RES,0.211 µM (active)
same,GI50,HCT-116,0.21 µM (active)
same,GI50,OVCAR-8,0.22 µM (active)
